How the values were obtained:
human abdominal skin = experiment: In vitro human skin permeation and skin disposition, flow-through diffusion cells (Examples 2, 2A, 2B); format: in vitro ADME
Procedure: Flow through diffusion cells were used for the permeation studies. HEPES-buffered Hanks' balanced salts containing 40% PEG 400 with gentamicin or 40% aqueous PEG 400 with gentamicin were used for the receiver compartment. Donor solution was comprised of 90:8:2 PG:H2O:IPM solution or gel formulation. […] Drug accumulation in the skin after a 24, 30 or 42 h diffusion experiment was determined as μmol/g wet tissue weight.
The skin samples used in the following experiments were obtained from abdominal reduction surgery and dermatomed to a thickness of approximately 200 μm. The skin samples used herein were frozen at −20° C. for less than six months.
One (1) L of receiver fluid was prepared by measuring 1 L of nanopure water into a graduated cylinder. 90% of the water was added to an Erlenmeyer flask. Hanks' salts (1 bottle) were added to the water along with 5.96 g of HEPES and 0.35 g of sodium bicarbonate. The pH of the solution was adjusted with 1 N sodium hydroxide solution to pH 7.4. The remaining water was added and the receiver fluid was filtered through a 0.2μ filter (Millipore, Billerica, Mass.). Fifty (50) mg of gentamicin was added to the filtered receiver fluid and 400 mL of the receiver fluid was removed and replaced with 400 mL of PEG 400.
The receiver fluid was prepared by measuring 600 mL of nanopure H2O into a graduated cylinder. The H2O was filtered through a 0.2μ filter (Millipore, Billerica, Mass.). Fifty (50) mg of gentamicin was added to the filtered H2O and 400 mL of PEG 400 was added.
The prodrugs were made up in a solution of 45:4:1 PG:H2O:IPM. For this solution, the appropriate amount of drug was weighed into a glass silanized culture tube and IPM was added, the 50 μL of PG to coat the drug, then an additional 247 μL PG was added and the donor solution was vortexed again. Finally 26 μL of water was added. The gel formulation resulted from the mixing of absolute ethanol, nanopure water, IPM, Carbopol® 980, 0.1 N sodium hydroxide solution and the respective drug.
The gel formulation was comprised of absolute ethanol, nanopure water, IPM, Carbopol® 980, 0.1 sodium hydroxide solution and respective drug. The anhydrous gel was comprised of absolute ethanol, PEG monoethyl ether 550, Klucel® hydroxypropylcellulose, and respective drug.
Dermatomed skin harvested from abdominoplasty, stored at −20° C., was used for the experiments. A PermeGear flow-through (In-Line, Hellertown, Pa.) diffusion cell system was used for the skin permeation studies.
Diffusion cells were kept at 32° C. with a circulating water bath. Human epidermal skin was arranged in the diffusion cell with stratum corneum (upper layer of skin) facing the donor compartment. The permeation area of the skin was 0.95 cm^2. The data was collected from a human skin donor with three diffusion cells per treatment.
The receiver solution was HEPES-buffered Hanks' balanced salts with gentamicin containing 40% PEG 400 at a pH of 7.4 or 40% aqueous PEG 400 and flow rate was adjusted to 0.8 mL/h. Each cell was charged with 0.10 mL of the respective drug formulation (donor solution) or 50 μL of gel formulation which was rubbed into the skin for 15 sec with a Teflon coated rod. The formulation was applied to ensure complete coverage. […]. Diffusion cells were covered with a stopper or cap for the duration of the study.
Samples were collected into scintillation vials in 3 h increments for either 24, 30, or 42 h. All the samples were stored at 4° C. until extracted. An aliquot (0.5 mL) of the diffusion sample was placed into a silanized HPLC vial and 0.5 mL of acetonitrile was added to the sample, capped and vortexed.
At the end of the experiment, the skin tissue was removed from the diffusion cell, rinsed with nanopure water, and blotted dry with a paper towel. The skin was tape stripped twice using book tape (Scotch™, 3M, St. Paul, Minn.) to remove drug formulation adhering to the tissue surface.

[1] = Plasma stability of cannabidiol prodrugs (bioconversion to parent drug); format: in vitro ADME; conditions: Table 20, di-prodrug in plasma; for % mono-prodrug at time (h): mono-prodrug formed
Procedure: An approximated 1 mg/mL stock solution of each prodrug was prepared in 100 μL of ethanol and 900 μL of acetonitrile. Ten (10) μL of stock was spiked into 1 mL of plasma and vortexed. The samples were kept sealed in an amber vial and samples were obtained to analyze for bioconversion to parent drug.

[2] = Table 16, 90:8:2 PG:H2O:IPM donor solution, 60/40 Hanks'/PEG 400 receiver fluid, CBD from applied prodrug
[3] = Table 16, 90:8:2 PG:H2O:IPM donor solution, 60/40 Hanks'/PEG 400 receiver fluid, as applied compound (CBD or intact prodrug)
[4] = Table 16, 90:8:2 PG:H2O:IPM donor solution, 60/40 Hanks'/PEG 400 receiver fluid, mono-prodrug (ALL00131) from applied di-prodrug
[5] = Table 16, 90:8:2 PG:H2O:IPM donor solution, 60/40 Hanks'/PEG 400 receiver fluid, prodrug applied, as total cannabidiol equivalents

C=C(C)[C@@H]1CCC(C)=C[C@H]1c1c(OC(=O)COCCOCCOCCOC)cc(CCCCC)cc1OC(=O)COCCOCCOCCOC [ALL00132, CBD di(3,6,9,12-tetraoxatridecanoate)]
42 h cumulative amt (human abdominal skin; [2]): 10.0 ± 0.4 nmol
Flux (human abdominal skin; [2]): 0.4 ± 0.1 nmol/cm^2/h
Lag time (human abdominal skin; [2]): 11.8 ± 4.2 h
42 h cumulative amt (human abdominal skin; [3]): 26.4 ± 17.0 nmol
42 h skin conc (human abdominal skin; [3]): 2.9 ± 1.3 µmol/g
Flux (human abdominal skin; [3]): 1.4 ± 0.4 nmol/cm^2/h
Lag time (human abdominal skin; [3]): 19.2 ± 4.9 h
42 h cumulative amt (human abdominal skin; [4]): 23.0 ± 7.1 nmol
42 h skin conc (human abdominal skin; [4]): 0.6 ± 0.1 µmol/g
Flux (human abdominal skin; [4]): 0.8 ± 0.2 nmol/cm^2/h
Lag time (human abdominal skin; [4]): 9.1 ± 3.3 h
42 h cumulative amt (human abdominal skin; [5]): 59.5 ± 23.8 nmol
42 h skin conc (human abdominal skin; [5]): 3.5 ± 1.7 µmol/g
Flux (human abdominal skin; [5]): 2.6 ± 0.5 nmol/cm^2/h
Lag time (human abdominal skin; [5]): 14.9 ± 3.8 h
Flux enhancement (human abdominal skin; Table 16, 90:8:2 PG:H2O:IPM donor solution, 60/40 Hanks'/PEG 400 receiver fluid, total cannabidiol versus cannabidiol): 0.40
detected in the skin as (human abdominal skin; in donor solution): prodrug and small amounts as mono-substituted prodrug, ALL00131
flux compared to cannabidiol (human abdominal skin; in donor solution): did not increase the flux
lag time compared to cannabidiol (human abdominal skin; in donor solution): wasn't decreased
permeated through the skin as (human abdominal skin; in donor solution): intact prodrug, mono-substituted prodrug (ALL00131), and cannabidiol
total skin concentrations compared to cannabidiol (human abdominal skin; in donor solution): not higher
% mono-prodrug at time (h) ([1]; 1 h): 52%
% mono-prodrug at time (h) ([1]; 2 h): 44%
% mono-prodrug at time (h) ([1]; 4 h): 24%
% mono-prodrug at time (h) ([1]; 6 h): 15%
% mono-prodrug at time (h) ([1]; 24 h): 2%
% Di-prodrug at time (h) ([1]; 0 h): 100%
% Di-prodrug at time (h) ([1]; 1 h): 28%
% Di-prodrug at time (h) ([1]; 2 h): 15%
% Di-prodrug at time (h) ([1]; 4 h): 0%
% Di-prodrug at time (h) ([1]; 6 h): 0%
% Di-prodrug at time (h) ([1]; 24 h): 0%
